{"source": "paper PMC10419252", "about": "“Synthesis, Properties, and Biomedical Application of Dicationic Gemini Surfactants with Dodecane Spacer and Carbamate Fragments” (International Journal of Molecular Sciences, 2023)", "key": {"[1]": {"settings": "alkyltrimethylammonium bromides; cited from earlier work"}, "[2]": {"system": "methicillin-resistant S. aureus MRSA-1 (resistant to fluoroquinolones and beta-lactams)", "settings": "cited from earlier work"}, "[3]": {"system": "Aspergillus niger BKMF-1119", "assay": "Antifungal activity (An)", "type": "cell-based", "settings": "Aspergillus niger, BKMF1119", "protocol": "(§1) The antimicrobial activity of the compounds was tested on Gram-positive Staphylococcus aureus ATCC 6538P FDA 209P (Sa), Bacillus cereus ATCC 10702 NCTC 8035 (Bc), Enterococcus faecalis ATCC 29212 (Ef), and Gram-negative bacteria Escherichia coli ATCC 25922 (Ec), Pseudomonas aeruginosa ATCC 9027 (Pa), including methicillin-resistant strains of S. aureus MRSA-1 (resistant to fluoroquinolones and beta-lactams) and MRSA-2 (resistant to beta-lactams). Antifungal activity was studied against Candida albicans ATCC 10231 (Ca), Trichophyton mentagrophytes var. gypseum 1773 (Tm), and Aspergillus niger BKMF-1119 (An). A more detailed description of the experiment is published in [21]."}, "[4]": {"system": "Candida albicans ATCC 10231", "assay": "Antifungal activity (Ca)", "type": "cell-based", "settings": "Candida albicans, ATCC10231", "protocol": "as §1"}, "[5]": {"system": "Trichophyton mentagrophytes var. gypseum 1773", "assay": "Antifungal activity (Tm)", "type": "cell-based", "settings": "Trichophyton mentagrophytes", "protocol": "as §1"}}}
{"molecule": "CCCCCCCCCCCCCC[N+](C)(C)C.[Br-]", "note": "[C14TAB]", "values": [{"measurement": "Nagg", "setting": "[1]", "value": 70}]}
{"molecule": "CCCCCCCCCCCCCCCC[N+](C)(C)C.[Br-]", "note": "[C16TAB]", "values": [{"measurement": "Nagg", "setting": "[1]", "value": 89}]}
{"molecule": "O=C(O)c1cn(C2CC2)c2cc(N3CCNCC3)c(F)cc2c1=O", "note": "[Ciprofloxacin]", "values": [{"measurement": "effectiveness toward MRSA-1 compared with 10-12-10(Et)", "setting": "[2]", "value": "two orders of magnitude less effective"}]}
{"molecule": "CC(=O)N1CCN(c2ccc(OCC3COC(Cn4ccnc4)(c4ccc(Cl)cc4Cl)O3)cc2)CC1", "note": "(stereo not drawn) [Ketoconazole, reference compound]", "values": [{"measurement": "MFC", "setting": "[3]; read-out: MFC, An", "value": "125 ± 10", "unit": "µg/mL"}, {"measurement": "MIC", "setting": "[3]; read-out: MIC, An", "value": "15.6 ± 1.3", "unit": "µg/mL"}, {"measurement": "MFC", "setting": "[4]; read-out: MFC, Ca", "value": "3.9 ± 0.3", "unit": "µg/mL"}, {"measurement": "MIC", "setting": "[4]; read-out: MIC, Ca", "value": "3.9 ± 0.3", "unit": "µg/mL"}, {"measurement": "MFC", "setting": "[5]; read-out: MFC, Tm", "value": "3.9 ± 0.3", "unit": "µg/mL"}, {"measurement": "MIC", "setting": "[5]; read-out: MIC, Tm", "value": "3.9 ± 0.3", "unit": "µg/mL"}]}
